Test system: 292921-168-R-J2-PDC KRAS tumor spheroid viability
Assay: Anticancer human tumor 292921-168-R-J2-PDC patient-derived pancreatic carcinoma cell line growth inhibition [KRAS2]
Settings: spheroids with HUVEC and MSC; for viability, T/C: stronger effect = lower value; active means viability on the fitted dose curve at most 10% of control; inactive means the rest
Procedure, shortened: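 Combination screen of spheroid viability in tumor-cell co-cultures with endothelial (HUVEC) and mesenchymal stem cell stroma. Each agent was tested in half-log dilutions, topping at clinical Cmax or at 10 microM without a known Cmax.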

[1] = curve of first compound, second compound 0.1 µM
[2] = curve of first compound, second compound 0.316 µM
[3] = curve of first compound, second compound 1 µM
[4] = curve of first compound, second compound 3.16 µM
[5] = curve of first compound, second compound 10 µM
[6] = second compound 0.1 µM, first compound 0.01 µM
[7] = second compound 0.1 µM, first compound 0.0316 µM
[8] = second compound 0.1 µM, first compound 0.1 µM
[9] = second compound 0.1 µM, first compound 0.316 µM
[10] = second compound 0.1 µM, first compound 1 µM
[11] = second compound 0.1 µM, first compound 3.16 µM
[12] = second compound 0.316 µM, first compound 0.01 µM
[13] = second compound 0.316 µM, first compound 0.0316 µM
[14] = second compound 0.316 µM, first compound 0.1 µM
[15] = second compound 0.316 µM, first compound 0.316 µM
[16] = second compound 0.316 µM, first compound 1 µM
[17] = second compound 0.316 µM, first compound 3.16 µM
[18] = second compound 1 µM, first compound 0.01 µM
[19] = second compound 1 µM, first compound 0.0316 µM
[20] = second compound 1 µM, first compound 0.1 µM
[21] = second compound 1 µM, first compound 0.316 µM
[22] = second compound 1 µM, first compound 1 µM
[23] = second compound 1 µM, first compound 3.16 µM
[24] = second compound 3.16 µM, first compound 0.01 µM
[25] = second compound 3.16 µM, first compound 0.0316 µM
[26] = second compound 3.16 µM, first compound 0.1 µM
[27] = second compound 3.16 µM, first compound 0.316 µM
[28] = second compound 3.16 µM, first compound 1 µM
[29] = second compound 3.16 µM, first compound 3.16 µM
[30] = second compound 10 µM, first compound 0.01 µM
[31] = second compound 10 µM, first compound 0.0316 µM
[32] = second compound 10 µM, first compound 0.1 µM
[33] = second compound 10 µM, first compound 0.316 µM
[34] = second compound 10 µM, first compound 1 µM
[35] = second compound 10 µM, first compound 3.16 µM
[36] = second compound 0.1 µM, first compound 10 µM
[37] = second compound 0.316 µM, first compound 10 µM
[38] = second compound 1 µM, first compound 10 µM
[39] = second compound 3.16 µM, first compound 10 µM
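Further: drug exposure lasted seven days after spheroids formed for three days.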
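Wherever viability, T/C is given: percent of DMSO vehicle control viability which is 100%.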

CC1COCCN1c1cc(-c2ccnn2C)c2ccnc(-c3ccn[nH]3)c2n1 (centres undefined) + CC1OCC2(CCN(c3cnc(Sc4ccnc(N)c4Cl)c(N)n3)CC2)C1N
inactive: viability, T/C [6] 44.6% | viability, T/C [7] 23.8% | viability, T/C [8] 15.9% | viability, T/C [9] 15% | viability, T/C [10] 15% | viability, T/C [11] 16.2% | viability, T/C [12] 38.9% | viability, T/C [13] 20.6% | viability, T/C [14] 14.6% | viability, T/C [15] 13% | viability, T/C [16] 13.3% | viability, T/C [17] 14.5% | viability, T/C [18] 33.5% | viability, T/C [19] 21.9% | viability, T/C [20] 13.4% | viability, T/C [21] 12.3% | viability, T/C [22] 12.3% | viability, T/C [23] 12.3% | viability, T/C [24] 28.2% | viability, T/C [25] 17.8% | viability, T/C [26] 13.4% | viability, T/C [27] 11% | viability, T/C [28] 10.2% | viability, T/C [29] 10.9% | viability, T/C [30] 25.3% | viability, T/C [31] 18.2% | viability, T/C [32] 13.1% | viability, T/C [33] 10.2% | viability, T/C [34] 10.7%
active: viability, T/C [35] 9.89%
< 10 nM: IC50 [1] | IC50 [2] | IC50 [3] | IC50 [4] | IC50 [5]

CC1COCCN1c1cc(-c2ccnn2C)c2ccnc(-c3ccn[nH]3)c2n1 (centres undefined)
< 10 nM: IC50 (curve of compound)
inactive: viability, T/C (compound 0.01 µM) 48% [middle of 5 runs] | viability, T/C (compound 0.0316 µM) 23.6% [middle of 5 runs] | viability, T/C (compound 0.1 µM) 16.1% [middle of 5 runs] | viability, T/C (compound 0.316 µM) 14.2% [middle of 5 runs] | viability, T/C (compound 1 µM) 14.4% [middle of 5 runs] | viability, T/C (compound 3.16 µM) 16% [middle of 5 runs]

CC(C)NCC(C(=O)N1CCN(c2ncnc3c2C(C)CC3O)CC1)c1ccc(Cl)cc1 (centres undefined) + COc1cc2nc(C)nc(NC(C)c3cc(N)cc(C(F)(F)F)c3)c2cc1OC1CCOC1
8100 nM: IC50 [2]
5010 nM: IC50 [3]
1250 nM: IC50 [4]
inactive: viability, T/C [7] 87.5% | viability, T/C [8] 84.8% | viability, T/C [9] 78.8% | viability, T/C [10] 77.8% | viability, T/C [11] 77.4% | viability, T/C [36] 46.3% | viability, T/C [13] 82.7% | viability, T/C [14] 82% | viability, T/C [15] 80.5% | viability, T/C [16] 75.3% | viability, T/C [17] 74.4% | viability, T/C [37] 44.7% | viability, T/C [19] 83.2% | viability, T/C [20] 71.1% | viability, T/C [21] 63.8% | viability, T/C [22] 63.2% | viability, T/C [23] 60.9% | viability, T/C [38] 40.2% | viability, T/C [25] 58.1% | viability, T/C [26] 51.1% | viability, T/C [27] 50.2% | viability, T/C [28] 50.4% | viability, T/C [29] 46.9% | viability, T/C [39] 30.6% | viability, T/C [31] 20.3% | viability, T/C [32] 19.7% | viability, T/C [33] 18.6% | viability, T/C [34] 18% | viability, T/C [35] 15.4% | viability, T/C (second compound 10 µM, first compound 10 µM) 9.75%
8850 nM: IC50 [1]
< 31.6 nM: IC50 [5]

CC(C)n1nc(-c2ccc3oc(N)nc3c2)c2c(N)ncnc21 + CC1OCC2(CCN(c3cnc(Sc4ccnc(N)c4Cl)c(N)n3)CC2)C1N
1.06 nM: IC50 [1]
< 0.316 nM: IC50 [2] | IC50 [3] | IC50 [4] | IC50 [5]
inactive: viability, T/C (second compound 0.1 µM, first compound 0.000316 µM) 66.5% | viability, T/C (second compound 0.1 µM, first compound 0.001 µM) 51.4% | viability, T/C (second compound 0.1 µM, first compound 0.00316 µM) 35.4% | viability, T/C [6] 29.4% | viability, T/C [7] 20.8% | viability, T/C [8] 19.1% | viability, T/C (second compound 0.316 µM, first compound 0.000316 µM) 48.7% | viability, T/C (second compound 0.316 µM, first compound 0.001 µM) 38.5% | viability, T/C (second compound 0.316 µM, first compound 0.00316 µM) 30.5% | viability, T/C [12] 21.6% | viability, T/C [13] 18.4% | viability, T/C [14] 16.6% | viability, T/C (second compound 1 µM, first compound 0.000316 µM) 44% | viability, T/C (second compound 1 µM, first compound 0.001 µM) 36.4% | viability, T/C (second compound 1 µM, first compound 0.00316 µM) 26.1% | viability, T/C [18] 19.3% | viability, T/C [19] 17.4% | viability, T/C [20] 14.5% | viability, T/C (second compound 3.16 µM, first compound 0.000316 µM) 32.3% | viability, T/C (second compound 3.16 µM, first compound 0.001 µM) 28.3% | viability, T/C (second compound 3.16 µM, first compound 0.00316 µM) 23.7% | viability, T/C [24] 16.6% | viability, T/C [25] 14.9% | viability, T/C [26] 12.5% | viability, T/C (second compound 10 µM, first compound 0.000316 µM) 27.2% | viability, T/C (second compound 10 µM, first compound 0.001 µM) 27.8% | viability, T/C (second compound 10 µM, first compound 0.00316 µM) 20.1% | viability, T/C [30] 17% | viability, T/C [31] 12.8% | viability, T/C [32] 11.3%

CC(=O)OC12COC1CC(O)C1(C)C(=O)C(O)C3=C(C)C(OC(=O)C(O)C(NC(=O)OC(C)(C)C)c4ccccc4)CC(O)(C(OC(=O)c4ccccc4)C21)C3(C)C (centres undefined)
< 10 nM: IC50 (curve of compound)
inactive: viability, T/C (compound 0.01 µM) 14.3% [middle of 5 runs] | viability, T/C (compound 0.0316 µM) 14.3% [middle of 5 runs] | viability, T/C (compound 0.1 µM) 12.4% [middle of 5 runs] | viability, T/C (compound 0.316 µM) 12.8% [middle of 5 runs] | viability, T/C (compound 1 µM) 13.8% [middle of 5 runs] | viability, T/C (compound 3.16 µM) 17.6% [middle of 5 runs]

CC(C)NCC(C(=O)N1CCN(c2ncnc3c2C(C)CC3O)CC1)c1ccc(Cl)cc1 (centres undefined) + C=CC(=O)N1CCN(c2nc(OCC3CCCN3C)nc3c2CCN(c2cccc4cccc(C)c24)C3)CC1CC#N
< 31.6 nM: IC50 [3] | IC50 [4]
active: viability, T/C [25] 0.1% | viability, T/C [26] 0.09% | viability, T/C [27] 0.09% | viability, T/C [28] 0.1% | viability, T/C [29] 0.11% | viability, T/C [39] 0.21%
6010 nM: IC50 [2]
inactive: viability, T/C (second compound 0.0316 µM, first compound 0.0316 µM) 88% | viability, T/C (second compound 0.0316 µM, first compound 0.1 µM) 84.6% | viability, T/C (second compound 0.0316 µM, first compound 0.316 µM) 84.5% | viability, T/C (second compound 0.0316 µM, first compound 1 µM) 82% | viability, T/C (second compound 0.0316 µM, first compound 3.16 µM) 73.9% | viability, T/C (second compound 0.0316 µM, first compound 10 µM) 54.7% | viability, T/C [7] 85.2% | viability, T/C [8] 78.6% | viability, T/C [9] 85.3% | viability, T/C [10] 79.3% | viability, T/C [11] 74.4% | viability, T/C [36] 51.8% | viability, T/C [13] 71.5% | viability, T/C [14] 68.5% | viability, T/C [15] 65.1% | viability, T/C [16] 69.2% | viability, T/C [17] 59% | viability, T/C [37] 42.3% | viability, T/C [19] 36.7% | viability, T/C [20] 28.8% | viability, T/C [21] 28.9% | viability, T/C [22] 32.1% | viability, T/C [23] 28.1% | viability, T/C [38] 21%
> 10000 nM: IC50 (curve of first compound, second compound 0.0316 µM) | IC50 [1]
